Measured values reported in article PMC5190008, “BO-1055, a novel DNA cross-linking agent with remarkable low myelotoxicity shows potent activity in sarcoma models” (Oncotarget, 2016).

Legend:
leukemia cell lines = tested on: leukemia cell lines; design: method as in PMID 21106377; conditions: leukemia cell lines ref 6; cited from earlier work
[1] = tested on: caspase 3/7 in A673 cells; assay: Caspase 3/7 activity (ApoTox-Glo Triplex Assay); type: cell-based, human; conditions: A673, 48h and 72h, concentration dependent
Protocol: A673 cells were plated at a density of 5 × 10^3 cells/well in 96 well plates. At 48h and 72h post drug exposure, 100μl of Caspase-Glo 3/7 reagent provided in the ApoTox -Glo Triplex Assay (Promega, USA) was added as per the protocol and the luminescence, which indicates caspase activation, was measured using the Synergy H1 hybrid microplate reader.

[2] = tested on: human CD34+ hematopoietic stem cells isolated from cord blood; assay: Colony forming unit (CFU) assay; type: cell-based; conditions: concentration < 5μM
Protocol: We performed the colony forming unit (CFU) assays using human CD34+ hematopoietic stem cells isolated from cord blood to elucidate hematologic toxicity. We noted no effect on BFU-E, GM and mixed colonies at a concentration < 5μM of BO-1055 on CFU assay (Figure 2C).
Colony assays were performed in triplicate in 24 well plates using 1.2% methylcellulose (Dow Chemical, Waterloo, NY), 30% FCS, 57.2 μM β-mercaptoethanol, 2 mM glutamine, 0.5 mM hemin (Sigma, USA), 20 ng/mL interleukin 3 (IL-3), granulocyte colony stimulating factor (G-CSF), c-KIT ligand (KL) and 6 U/mL erythropoietin (Epo). IL-3 and KL and Epo were obtained from R and D Systems (Minneapolis, USA) and G-CSF was from Amgen (Thousand Oaks, CA). Colonies were scored 14 days after plating as per the protocol described earlier.

[3] = tested on: patient derived Ewing sarcoma xenografts; assay: Cyclophosphamide resistant patient-derived Ewing sarcoma xenografts; type: in vivo, NSG mice; conditions: 30mg/kg/dose i.v. q2d x 4, tumors progressed to 500mm^3 after MTD cyclophosphamide
Protocol: Patient derived xenografts were established from Ewing sarcoma patients who progressed through first line chemotherapy that included cyclophosphamide, doxorubicin, vincristine, ifosfamide and etoposide (PS3). When these Ewing sarcoma xenografts (n = 10) reached 100mm^3, they were randomized to control and treatment groups.
All mouse experiments were performed at the animal core facility at MSKCC under an approved protocol following the IACUC guidelines. Five to seven-week-old NOD/SCID IL2R gamma null (NSG) mice (bred at the Mouse Genetics Core Facility, MSKCC) were used for in vivo experiments. All mouse experiments were done following the IACUC guidelines at the animal facility at MSKCC. Tumors were induced using 10^6 A673 cells or A204 cells in 0.2ml 1:1 cellular medium, Matrigel matrix (BD Bioscience, Bedford, MA) and injected subcutaneously (s.q) into the right flank. The tumors were measured every 3 d with a caliper, and the diameters were recorded. Tumor volume was calculated by the formula a^2 b/2 where ‘a’ is the smallest and ‘b’ is the largest diameter. When the tumors reached 100mm^3, we randomized mice into control and drug treatment groups. Treatment groups received BO-1055 by tail vein injection at 10mg/kg, 20mg/kg and 30mg/kg q2d x 5 doses for mice bearing A673 xenografts. BO-1055 was given at 30mg/kg q2d x 5 doses for mice bearing A204 xenografts. […]

SMILES: CN(C)CCNC(=O)c1cccc(NC(=O)Nc2ccc(N(CCCl)CCCl)cc2)c1 [BO-1055]
- cross resistance to taxol or vinblastine (leukemia cell lines): little or no cross resistance
- caspase 3/7 activity [1]: Activation
- effect on BFU-E, GM and mixed colonies [2]: no effect
- tumor response [3]: tumor regression
